From patent publication US20240327364A1, “THERAPEUTIC TARGETING OF GPR68 TO INDUCE FERROPTOSIS” (University Of Maryland, Baltimore, priority 2023, published 2024) come the findings set out here.

In one test the target is T1, CCR4 (Homo sapiens, UniProt P51679).
T1 construct: host or cells: Chem-1 cells with Gα15
Put plainly: GPCR Profiler. The format is cell-based.

A further test concerns the target T2, DYRK2 (Homo sapiens, UniProt Q92630).
T2 construct: purchased DiscoveRx (Fremont, CA), KinomeScan service
In words: KinomeScan. The format is binding. To be noted: read-out: % Control.

In a further test the target is T3, PIK3CA(M1043I) (Homo sapiens, UniProt P42336, M1043I).
T3 construct: purchased DiscoveRx (Fremont, CA)
In words: KinomeScan. The class given is binding. To be noted: read-out: % Control.

In another test the target is T4, GRK1 (Homo sapiens, UniProt Q15835).
T4 construct: purchased DiscoveRx (Fremont, CA)
Put plainly: KinomeScan. The class given is binding. To be noted: read-out: % Control.

For the next test, the target named is T5, EPHB3 (Homo sapiens, UniProt P54753).
T5 construct: purchased DiscoveRx (Fremont, CA)
In words: KinomeScan. To be noted: read-out: % Control. The format is binding.

The target of a further test is T6, RIOK1 (Homo sapiens, UniProt Q9BRS2).
T6 construct: purchased DiscoveRx (Fremont, CA)
Put plainly: KinomeScan. The class given is binding. To be noted: read-out: % Control.

For the next test, the target named is T7, CDK8 (Homo sapiens, UniProt P49336).
T7 construct: purchased DiscoveRx (KinomeScan service)
In words: KinomeScan. The class given is binding. The following applies: read-out: % Control.

The target in another test is CDKL2 (Homo sapiens, UniProt Q92772). In words: KinomeScan. To be noted: read-out: % Control. The class given is binding.
In the next test the target is T8, GPR99 (Homo sapiens, UniProt Q96P68).
T8 construct: host or cells: Chem-1 cells with promiscuous Gα15
Put plainly: GPCR Profiler. The class given is cell-based.

In the next test the target is T9, TRKC (Homo sapiens, UniProt Q16288).
T9 construct: purchased DiscoveRx (Fremont, CA)
In words: KinomeScan. The class given is binding. The following applies: read-out: % Control.

The target of a further test is T10, GAL1 (Homo sapiens, UniProt P47211).
T10 construct: host or cells: Chem-1 cells expressing Gα15
Put plainly: GPCR Profiler. The format is cell-based.

For a further test, the target named is T11, PKNB(M. tuberculosis) (Mycobacterium tuberculosis, UniProt P9WI81).
T11 construct: purchased DiscoveRx (Fremont, CA)
Put plainly: KinomeScan. The format is binding. The following applies: read-out: % Control.

The target of another test is T12, FLT3(D835Y) (Homo sapiens, UniProt P36888, D835Y).
T12 construct: purchased DiscoveRx (Fremont, CA)
Put plainly: KinomeScan. The format is binding. To be noted: read-out: % Control.

The target in the next test is T13, MYO3B (Homo sapiens, UniProt Q8WXR4).
T13 construct: purchased DiscoveRx
In words: KinomeScan. The class given is binding. The following applies: read-out: % Control.

In a further test the target is T14, FES (Homo sapiens, UniProt P07332).
T14 construct: purchased DiscoveRx (Fremont, CA)
In words: KinomeScan. The following applies: read-out: % Control. The class given is binding.

The target of a further test is T15, CAMK1D (Homo sapiens, UniProt Q8IU85).
T15 construct: purchased DiscoveRx (KinomeScan service)
In words: KinomeScan. The format is binding. To be noted: read-out: % Control.

The target of another test is T16, CAMK2D (Homo sapiens, UniProt Q13557).
T16 construct: purchased DiscoveRx (KinomeScan service)
In words: KinomeScan. The format is binding. To be noted: read-out: % Control.

A further test addresses T17, CAMK2G (Homo sapiens, UniProt Q13555).
T17 construct: purchased DiscoveRx (KinomeScan service)
In words: KinomeScan. The format is binding. The following applies: read-out: % Control.

For the next test, the target named is T18, BMX (Homo sapiens, UniProt P51813).
T18 construct: purchased DiscoveRx (Fremont, CA)
In words: KinomeScan. The format is binding. The following applies: read-out: % Control.

The next test concerns the target T19, PRKD1 (Homo sapiens, UniProt Q15139).
T19 construct: purchased DiscoveRx (Fremont, CA)
In words: KinomeScan. The class given is binding. To be noted: read-out: % Control.

For a further test, the target named is T20, PRKR (Homo sapiens, UniProt P19525).
T20 construct: purchased DiscoveRx (Fremont, CA)
In words: KinomeScan. The format is binding. To be noted: read-out: % Control.

For another test, the target named is T21, CXCR3 (Homo sapiens, UniProt P49682).
T21 construct: host or cells: Chem-1 cells with Gα15
In words: GPCR Profiler. The format is cell-based.

The target of the next test is T22, TLK1 (Homo sapiens, UniProt Q9UKI8).
T22 construct: purchased DiscoveRx (Fremont, CA)
In words: KinomeScan. The class given is binding. To be noted: read-out: % Control.

The next test relates to WM115. In words: Agarose drop assay. To be noted: OGM2 5 μM, 5 days. The class given is cell-based, human. The protocol: WM115 cells were trypsinized and resuspended at 100,000 cells per mL in low melt agarose. A 10 μl drop of the cell mixture was added to 12-well plate. After solidifying Normal culture media was added with either DMSO 0.5% or OGM2 5 μM. The area around the agarose drop was visualized manually with light microscopy. The cells were incubated for 5 days and visualized. Cells outside of the agarose drop were visualized and quantitated.
FIG. 12A is a schematic of the agarose drop assay. WM115 cells were mixed into a low melt agarose solution and single 10 μL drops were seeded onto cell culture plates. After solidifying, media containing OGM2 (5 μM) or CTL (DMSO […]) was added and wells were observed 5 days later. Immediately after media addition no cells are on the plate outside of the agarose gel in CTL or OGM2. Five days after seeding cells are observed outside of the gel (Black arrows) in CTL but not in OGM2. […] Quantification on the number of cells that escaped from an average of 5 gel drop replicates. FIG. 12B through FIG. 12D show the cells after media addition. No cells are on the plate outside of the agarose gel in CTL or OGM2. Five days after seeding, cells are observed outside of the gel (arrows) in CTL but not in OGM2.

The test system of another test is Panc02. In words: Liperfluo lipid peroxidation. The class given is cell-based, mouse. To be noted: OGM2 and ionizing radiation. The protocol: Where appropriate, ANOVA, or student's T-test were conducted in PRISM. Chi squared T(X) was used for Liperfluo analysis. A value T(X)>4 implies that the two distributions are different with a p<0.01 (99% confidence). For drug interaction and therapeutic interaction, the coefficient of drug interaction (CDI) was calculated as follows: CDI=AB/(A×B). According to the impact of each group, AB is the value of combined treatment and A or B is the value of the single agent group to control group.
Radiation, like OGM2, induces lipid peroxidation in addition to DNA damage. OGM was tested for its ability to sensitize lung and pancreatic cancers to radiation induced lipid peroxidation and ferroptosis. Cells were incubated at 37° C. in 5% CO2 in […] DMEM with DMSO, OGM2, or Erastin for 3 days. Then 2.5 μM Liperfluo in 3 ml fresh media was added and cells were incubated at 37° C. in 5% CO2 for 1 hour. Cells were then trypsinized, pelleted, and resuspended in cell sorting media (1% BSA and 1 mM EDTA in PBS pH 7.4). A BD LSR II was used to record Ten thousand events and the data processed with FlowJo v10.8. […] All treatments were highly significant with Chi-squared >4 indicating a p<0.01.

T1 sequence (P51679 whole entry): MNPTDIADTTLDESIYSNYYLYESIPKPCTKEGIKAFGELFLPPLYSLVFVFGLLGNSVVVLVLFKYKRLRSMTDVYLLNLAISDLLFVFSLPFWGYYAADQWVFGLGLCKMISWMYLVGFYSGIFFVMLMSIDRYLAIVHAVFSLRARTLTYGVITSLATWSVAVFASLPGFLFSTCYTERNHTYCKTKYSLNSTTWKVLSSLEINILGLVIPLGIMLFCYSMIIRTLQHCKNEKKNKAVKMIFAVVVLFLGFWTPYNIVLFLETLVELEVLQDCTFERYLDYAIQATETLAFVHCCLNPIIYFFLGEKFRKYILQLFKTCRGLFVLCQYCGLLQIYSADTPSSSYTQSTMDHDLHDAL
T21 sequence (P49682 whole entry, species assumed): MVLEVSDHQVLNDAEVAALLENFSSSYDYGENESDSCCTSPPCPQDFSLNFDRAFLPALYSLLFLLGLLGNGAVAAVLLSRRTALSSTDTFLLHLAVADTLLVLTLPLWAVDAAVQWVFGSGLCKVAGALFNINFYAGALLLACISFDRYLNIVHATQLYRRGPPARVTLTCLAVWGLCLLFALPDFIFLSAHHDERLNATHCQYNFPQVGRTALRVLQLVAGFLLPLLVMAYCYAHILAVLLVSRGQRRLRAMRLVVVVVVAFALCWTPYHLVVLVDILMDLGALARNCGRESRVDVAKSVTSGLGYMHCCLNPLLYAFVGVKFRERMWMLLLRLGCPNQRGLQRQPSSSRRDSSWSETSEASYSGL
T10 sequence (P47211 whole entry): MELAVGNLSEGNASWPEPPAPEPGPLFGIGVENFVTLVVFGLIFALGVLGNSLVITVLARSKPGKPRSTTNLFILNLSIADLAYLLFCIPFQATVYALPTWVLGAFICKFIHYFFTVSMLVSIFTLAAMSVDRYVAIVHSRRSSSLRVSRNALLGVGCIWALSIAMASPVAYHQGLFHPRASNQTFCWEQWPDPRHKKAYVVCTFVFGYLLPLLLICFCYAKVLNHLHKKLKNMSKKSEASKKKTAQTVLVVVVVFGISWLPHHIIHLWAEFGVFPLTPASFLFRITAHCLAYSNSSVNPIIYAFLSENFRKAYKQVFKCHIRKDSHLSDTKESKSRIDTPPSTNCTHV
T14 sequence (P07332 whole entry): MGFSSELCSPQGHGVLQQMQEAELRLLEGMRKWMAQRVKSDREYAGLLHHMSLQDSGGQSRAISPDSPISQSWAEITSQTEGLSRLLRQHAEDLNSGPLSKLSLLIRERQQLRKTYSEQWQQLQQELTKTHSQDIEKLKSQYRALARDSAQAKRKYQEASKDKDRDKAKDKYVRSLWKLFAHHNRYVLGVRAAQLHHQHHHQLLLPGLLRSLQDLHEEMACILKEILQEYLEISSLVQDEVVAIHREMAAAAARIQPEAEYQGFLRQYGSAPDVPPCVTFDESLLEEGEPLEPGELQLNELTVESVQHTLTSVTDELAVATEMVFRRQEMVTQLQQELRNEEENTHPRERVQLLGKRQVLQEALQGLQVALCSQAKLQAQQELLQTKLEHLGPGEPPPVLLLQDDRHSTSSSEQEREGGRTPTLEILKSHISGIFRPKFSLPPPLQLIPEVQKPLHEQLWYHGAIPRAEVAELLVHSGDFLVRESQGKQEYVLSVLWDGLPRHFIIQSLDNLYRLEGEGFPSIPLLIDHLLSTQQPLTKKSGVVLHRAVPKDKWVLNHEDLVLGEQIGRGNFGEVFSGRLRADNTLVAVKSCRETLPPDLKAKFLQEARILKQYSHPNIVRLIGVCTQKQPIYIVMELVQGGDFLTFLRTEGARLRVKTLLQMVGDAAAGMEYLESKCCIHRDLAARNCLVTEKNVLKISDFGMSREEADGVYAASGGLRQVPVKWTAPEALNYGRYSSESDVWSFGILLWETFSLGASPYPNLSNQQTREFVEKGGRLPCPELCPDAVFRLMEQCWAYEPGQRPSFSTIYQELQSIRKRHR
T19 sequence (Q15139 whole entry): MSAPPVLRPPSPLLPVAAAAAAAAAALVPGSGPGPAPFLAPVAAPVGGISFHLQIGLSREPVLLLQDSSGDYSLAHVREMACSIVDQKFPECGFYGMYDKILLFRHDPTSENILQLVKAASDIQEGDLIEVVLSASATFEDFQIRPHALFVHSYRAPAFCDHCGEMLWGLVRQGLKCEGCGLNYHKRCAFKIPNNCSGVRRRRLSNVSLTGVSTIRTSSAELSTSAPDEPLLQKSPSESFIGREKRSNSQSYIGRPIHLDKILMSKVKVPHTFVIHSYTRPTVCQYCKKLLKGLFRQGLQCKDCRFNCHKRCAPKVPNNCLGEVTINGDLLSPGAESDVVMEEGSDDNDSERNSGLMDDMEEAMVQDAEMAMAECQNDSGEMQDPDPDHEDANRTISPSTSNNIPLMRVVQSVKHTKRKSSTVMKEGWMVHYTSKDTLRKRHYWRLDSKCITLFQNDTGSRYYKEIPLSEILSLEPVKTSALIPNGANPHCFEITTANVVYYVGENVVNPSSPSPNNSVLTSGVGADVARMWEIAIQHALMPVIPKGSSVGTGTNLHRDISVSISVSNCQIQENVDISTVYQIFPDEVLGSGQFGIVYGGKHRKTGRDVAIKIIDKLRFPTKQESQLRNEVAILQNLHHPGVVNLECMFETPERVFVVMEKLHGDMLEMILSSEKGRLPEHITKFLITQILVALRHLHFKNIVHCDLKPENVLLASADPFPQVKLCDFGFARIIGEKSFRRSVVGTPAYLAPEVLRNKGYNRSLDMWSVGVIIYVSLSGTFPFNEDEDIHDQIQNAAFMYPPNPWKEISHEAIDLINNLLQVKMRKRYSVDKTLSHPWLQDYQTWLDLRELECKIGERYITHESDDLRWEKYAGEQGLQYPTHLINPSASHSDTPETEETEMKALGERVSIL
T15 sequence (Q8IU85 whole entry): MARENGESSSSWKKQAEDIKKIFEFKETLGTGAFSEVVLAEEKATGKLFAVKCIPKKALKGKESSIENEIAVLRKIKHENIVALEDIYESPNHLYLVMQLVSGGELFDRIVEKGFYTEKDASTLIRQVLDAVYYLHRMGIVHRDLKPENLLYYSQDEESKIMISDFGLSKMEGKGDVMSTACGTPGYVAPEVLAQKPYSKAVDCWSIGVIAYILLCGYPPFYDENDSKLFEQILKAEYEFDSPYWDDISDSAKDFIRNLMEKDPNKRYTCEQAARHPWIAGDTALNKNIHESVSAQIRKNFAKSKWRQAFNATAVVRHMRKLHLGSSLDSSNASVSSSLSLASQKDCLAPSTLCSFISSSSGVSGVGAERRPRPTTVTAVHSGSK
T6 sequence (Q9BRS2 whole entry): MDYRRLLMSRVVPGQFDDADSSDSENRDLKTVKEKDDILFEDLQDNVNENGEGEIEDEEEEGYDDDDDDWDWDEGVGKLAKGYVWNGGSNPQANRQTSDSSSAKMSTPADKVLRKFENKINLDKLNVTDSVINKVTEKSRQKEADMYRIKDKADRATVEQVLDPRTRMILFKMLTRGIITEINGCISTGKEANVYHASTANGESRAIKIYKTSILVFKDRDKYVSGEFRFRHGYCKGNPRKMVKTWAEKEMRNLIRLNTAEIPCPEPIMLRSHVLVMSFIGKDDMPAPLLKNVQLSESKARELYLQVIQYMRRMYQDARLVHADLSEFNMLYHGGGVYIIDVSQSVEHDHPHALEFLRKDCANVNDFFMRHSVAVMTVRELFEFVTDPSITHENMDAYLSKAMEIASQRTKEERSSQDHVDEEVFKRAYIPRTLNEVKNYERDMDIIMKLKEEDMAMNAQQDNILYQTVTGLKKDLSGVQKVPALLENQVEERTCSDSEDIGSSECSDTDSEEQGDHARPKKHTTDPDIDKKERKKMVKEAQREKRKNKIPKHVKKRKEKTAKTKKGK
T4 sequence (Q15835 whole entry): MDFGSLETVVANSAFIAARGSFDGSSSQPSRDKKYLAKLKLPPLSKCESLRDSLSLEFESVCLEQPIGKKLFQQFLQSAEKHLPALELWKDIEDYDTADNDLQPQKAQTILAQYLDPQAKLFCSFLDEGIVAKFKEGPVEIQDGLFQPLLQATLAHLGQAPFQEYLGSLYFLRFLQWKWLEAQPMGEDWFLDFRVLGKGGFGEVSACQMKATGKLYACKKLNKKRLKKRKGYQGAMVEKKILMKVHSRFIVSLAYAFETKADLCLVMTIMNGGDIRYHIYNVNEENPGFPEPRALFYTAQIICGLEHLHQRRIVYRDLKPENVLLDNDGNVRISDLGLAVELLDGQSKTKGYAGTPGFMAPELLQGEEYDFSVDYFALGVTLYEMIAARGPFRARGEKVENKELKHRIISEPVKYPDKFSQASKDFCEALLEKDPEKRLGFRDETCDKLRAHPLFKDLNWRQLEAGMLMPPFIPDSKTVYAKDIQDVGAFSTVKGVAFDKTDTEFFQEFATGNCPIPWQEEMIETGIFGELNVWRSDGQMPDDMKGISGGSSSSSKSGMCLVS
T17 sequence (Q13555 whole entry): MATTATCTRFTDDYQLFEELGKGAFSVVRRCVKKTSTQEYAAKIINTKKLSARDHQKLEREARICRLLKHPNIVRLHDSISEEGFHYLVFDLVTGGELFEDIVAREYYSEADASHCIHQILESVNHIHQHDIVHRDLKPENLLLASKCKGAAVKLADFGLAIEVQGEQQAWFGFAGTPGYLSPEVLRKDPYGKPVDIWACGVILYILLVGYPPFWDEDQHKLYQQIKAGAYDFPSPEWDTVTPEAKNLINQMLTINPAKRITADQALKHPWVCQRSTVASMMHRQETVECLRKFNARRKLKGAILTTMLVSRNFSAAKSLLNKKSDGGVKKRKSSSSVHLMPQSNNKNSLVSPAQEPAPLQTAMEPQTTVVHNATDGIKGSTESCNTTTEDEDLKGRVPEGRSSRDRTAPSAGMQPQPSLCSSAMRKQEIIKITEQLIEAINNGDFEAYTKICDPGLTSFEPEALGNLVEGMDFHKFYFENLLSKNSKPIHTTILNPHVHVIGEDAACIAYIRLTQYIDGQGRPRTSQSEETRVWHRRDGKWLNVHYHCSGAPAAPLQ

On to `CCc1ccc2c(c1)C1(NN=C(c3cccc4ccccc34)S1)C(=O)N2` (centres unmarked) [OGM1, 5-ethyl-5′-naphthalen-1-ylspiro[1H-indole-3,2′-3H-1,3,4-thiadiazole]-2-one], for which the Antagonism at CCR4 (10 uM) is on record as −4.1; at GPR99 (10 uM), 0.5; at GAL1 (10 uM), −7.3; at CXCR3 (10 uM), −2. Further, the Agonism at CCR4 (12.5 uM) is on record as −0.7; at GPR99 (12.5 uM) it was 6.5; at GAL1 (12.5 uM), 1.6; at CXCR3 (12.5 uM), 0.1. Moreover, the remaining binding at 10 µM amounted to 91% at DYRK2; 59% at PIK3CA(M1043I); 100% on GRK1; 100% on EPHB3; 100% on RIOK1; 100% on CDK8. Also, the remaining binding at 10 µM on CDKL2 was 100%; on TRKC it was 62%; at PKNB(M. tuberculosis) it was 79%; at FLT3(D835Y), 100%; at MYO3B, 100%; on FES, 100%. Also, the remaining binding at 10 µM at CAMK1D is 68%; at CAMK2D, 91%; at CAMK2G it was 85%; at BMX it was 100%; at PRKD1, 100%; on PRKR it was 59%. The remaining binding at 10 µM on TLK1 came to 53%.

For the compound `CCc1ccc2c(c1)C1(NN=C(c3ccccc3)S1)C(=O)N2` (centres unmarked) [OGM2], in the test with WM115, the “migration out of agarose drop” value was “migrated significantly less than the vehicle treated cells”. For the same compound, in the test on Panc02, the “CDI, lipid peroxidation” value is listed as less than 0.232.
